The record followed here is ChEMBL document CHEMBL1201862, “PubChem BioAssay data set” (2004).

Molecules are shown by their SMILES.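 Exposure lasted 48 hours, with cells grown in 96-well plates and compounds tested at five concentrations. The concentration for 50% growth inhibition is given as GI50.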 Calls of active or inactive are those of the source. Cut-off read from the data, not from the text of the source: active = GI50 up to about 1.1 µM and inactive = higher.

Test systems include A498; A549; ACHN; CAKI-1; EKVX; HCC 2998; HCT-15; Hs-578T; MDA-N; MOLT-4; NCI-H23; NCI-H460; NCI/ADR-RES; OVCAR-5; PC-3; SF-539; SW-620; U-251; UACC-257; UO-31.
Holding throughout (assay): NCI-60 cell line screen, 48 h

As for `O=C(/C=C/c1ccc(Cl)c(Cl)c1)Oc1ccc(/C=C2\CCCCC2=O)cc1`, the GI50 with A498, in the assay with A549, in the assay on ACHN, with CAKI-1, in the assay on EKVX and in the assay with HCC 2998 was > 100 µM (inactive) throughout. In addition, the GI50 with HCT-15 was over 100 µM; in the assay on Hs-578T, > 100 µM (inactive); in the assay on MDA-N, > 100 µM (inactive); in the assay with MOLT-4, 24.6 µM (inactive); with NCI-H23, > 100 µM (inactive); in the assay on NCI-H460, > 100 µM (inactive). The GI50 in the assay with NCI/ADR-RES, in the assay with OVCAR-5, in the assay on PC-3, in the assay on SF-539, in the assay on SW-620 and in the assay with U-251 was > 100 µM (inactive) each time. Moreover, the GI50 in the assay on UACC-257 and with UO-31 was > 100 µM (inactive) in each case.
For the compound `CCCCCC(=O)Nc1[nH]nnc1C#N`, the GI50 in the assay on A498, with A549, in the assay on ACHN, in the assay with CAKI-1, in the assay on EKVX and in the assay with HCC 2998 was > 100 µM (inactive) each time. Moreover, the GI50 is over 100 µM in the assay on HCT-15; > 100 µM (inactive) in the assay with Hs-578T; > 100 µM (inactive) with MDA-N; > 100 µM (inactive) in the assay on MOLT-4; > 100 µM (inactive) in the assay on NCI-H23; > 100 µM (inactive) in the assay with NCI-H460. Besides, the GI50 in the assay with NCI/ADR-RES, in the assay with OVCAR-5, in the assay with PC-3, in the assay with SF-539, with SW-620 and with U-251 was > 100 µM (inactive) in each case. For the same compound, the GI50 in the assay with UACC-257 and in the assay on UO-31 was > 100 µM (inactive) each time.
For `CCOC(=O)N[C@H]1CCc2cc(OC)c(OC)c(OC)c2-c2ccc(SC)c(=O)cc21`, the GI50 in the assay on A498 is < 0.01 µM (active); in the assay with A549, < 0.01 µM (active); in the assay with ACHN, < 0.01 µM (active); in the assay with CAKI-1 it was < 0.01 µM (active); in the assay with EKVX, 29.9 µM (inactive); with HCC 2998, < 0.01 µM (active). For the same compound, the GI50 with HCT-15 is under 0.01 µM; in the assay on Hs-578T, < 0.01 µM (active); with MDA-N it was < 0.01 µM (active); in the assay on MOLT-4, < 0.01 µM (active); with NCI-H23, < 0.01 µM (active); with NCI-H460 it was < 0.01 µM (active). The GI50 with NCI/ADR-RES is 0.0228 µM (active); with OVCAR-5 it was 0.317 µM (active); in the assay on PC-3, < 0.01 µM (active); with SF-539 it was < 0.01 µM (active); in the assay on SW-620, < 0.01 µM (active); in the assay on U-251 it was < 0.01 µM (active). Also, the values for the GI50 in the assay on UACC-257 and with UO-31 were 16.6 µM (inactive) and < 0.0117 µM (active), respectively.
As for `C[C@@H]1O[C@@H]2OCC[C@@H]2C2=C1C(=O)c1ccccc1C2=O`, the GI50 with A498 was 18 µM (inactive); with A549, 19 µM (inactive); in the assay on ACHN, 12.2 µM (inactive); with CAKI-1, 15.2 µM (inactive); in the assay with EKVX it was 19.8 µM (inactive); in the assay on HCC 2998, 17.9 µM (inactive). In addition, the GI50 was 15.6 µM in the assay with HCT-15; 28.1 µM (inactive) in the assay on Hs-578T; 1.85 µM (inactive) in the assay with MDA-N; 7.74 µM (inactive) with MOLT-4; 4.88 µM (inactive) with NCI-H23; 16.7 µM (inactive) with NCI-H460. Moreover, the GI50 in the assay with NCI/ADR-RES was 2.02 µM (inactive); in the assay with OVCAR-5, 1.81 µM (inactive); in the assay with PC-3 it was 3.65 µM (inactive); in the assay on SF-539, 8.85 µM (inactive); with SW-620, 4.04 µM (inactive); with U-251, 7.53 µM (inactive). Also, the results for the GI50 in the assay on UACC-257 and with UO-31 were 11.5 µM (inactive) and 10.8 µM (inactive), respectively.
Consider `CN(C)c1ccc(/C=N\NC(=O)c2ccccc2Nc2ccccc2C(=O)N/N=C/c2ccc(N(C)C)cc2)cc1`, for which the GI50 in the assay with A498, in the assay on A549, in the assay with ACHN, with CAKI-1, in the assay with EKVX and with HCC 2998 was > 100 µM (inactive) in each case. For the same compound, the GI50 in the assay on HCT-15 was over 100 µM; in the assay on Hs-578T, > 100 µM (inactive); in the assay with MDA-N, > 100 µM (inactive); with MOLT-4, > 100 µM (inactive); in the assay on NCI-H23, > 100 µM (inactive); in the assay on NCI-H460, > 100 µM (inactive). The GI50 in the assay with NCI/ADR-RES was > 100 µM (inactive); with OVCAR-5 it was 28.5 µM (inactive); in the assay with PC-3 it was > 100 µM (inactive); in the assay on SF-539, 20 µM (inactive); in the assay with SW-620, > 100 µM (inactive); in the assay on U-251, > 100 µM (inactive). Also, the GI50 with UACC-257 and with UO-31 was > 100 µM (inactive) throughout.
For the compound `NC(CS)C(=O)NCCNc1ccc(NCCNC(=O)C(N)CS)c2c1C(=O)c1c(O)ccc(O)c1C2=O` (stereo not given), the GI50 was 0.0771 µM (active) in the assay on A498; 0.00251 µM (active) in the assay with A549; 0.00865 µM (active) in the assay on ACHN; 0.0243 µM (active) with CAKI-1; 0.32 µM (active) with EKVX; 0.225 µM (active) in the assay on HCC 2998. The GI50 in the assay with HCT-15 is 0.112 µM; in the assay on Hs-578T it was 0.137 µM (active); in the assay with MDA-N, 0.359 µM (active); in the assay with MOLT-4, < 0.001 µM (active); in the assay with NCI-H23 it was 0.0115 µM (active); in the assay with NCI-H460 it was < 0.001 µM (active). The GI50 with NCI/ADR-RES is 0.126 µM (active); in the assay on OVCAR-5, 0.481 µM (active); in the assay on PC-3, 0.126 µM (active); with SF-539, 0.0259 µM (active); in the assay with SW-620, 0.0292 µM (active); in the assay on U-251, 0.00579 µM (active). For the same compound, the GI50 in the assay on UACC-257 is 0.857 µM (active); with UO-31 it was 0.0313 µM (active).
For `COc1ccc(CNc2ccn(C3OC(CO)C(O)C3O)c(=O)n2)cc1` (stereo not given), the GI50 with A498 was > 100 µM (inactive); in the assay on A549 it was > 100 µM (inactive); in the assay on ACHN, > 100 µM (inactive); in the assay with CAKI-1, > 100 µM (inactive); with EKVX, 73.5 µM (inactive); in the assay with HCC 2998 it was 48.8 µM (inactive). For the same compound, the GI50 was over 100 µM with HCT-15; > 100 µM (inactive) with Hs-578T; 49.9 µM (inactive) in the assay with MDA-N; 45.1 µM (inactive) in the assay with MOLT-4; 88.7 µM (inactive) in the assay with NCI-H23; 78.7 µM (inactive) in the assay with NCI-H460. Besides, the GI50 in the assay with NCI/ADR-RES, in the assay with OVCAR-5, in the assay on PC-3, with SF-539, in the assay on SW-620 and in the assay with U-251 was > 100 µM (inactive) in each case. Also, the GI50 in the assay with UACC-257 was 49.8 µM (inactive); in the assay with UO-31, 81.7 µM (inactive).
`CC(=O)Nc1nc(C)c(S(=O)(=O)NC(=O)N2c3ccccc3CCc3ccccc32)s1`: the GI50 with A498, in the assay with A549, with ACHN, with CAKI-1, with EKVX and in the assay with HCC 2998 was > 100 µM (inactive) each time. The GI50 with HCT-15 is over 100 µM; in the assay with Hs-578T, > 100 µM (inactive); with MDA-N it was > 100 µM (inactive); with MOLT-4, 89.5 µM (inactive); with NCI-H23, > 100 µM (inactive); in the assay on NCI-H460, > 100 µM (inactive). The GI50 in the assay with NCI/ADR-RES, in the assay on OVCAR-5, in the assay on PC-3, with SF-539, in the assay on SW-620 and in the assay with U-251 was > 100 µM (inactive) in each case. The GI50 with UACC-257 and in the assay on UO-31 was > 100 µM (inactive) in each case.
For `CC(Cl)CC(=O)OCC1CCCN2CCCCC12` (stereo not given), the GI50 in the assay on A498, in the assay with A549, with ACHN, in the assay with CAKI-1, with EKVX and in the assay on HCC 2998 was > 100 µM (inactive) in each case. Besides, the GI50 was over 100 µM in the assay with HCT-15; > 100 µM (inactive) in the assay with Hs-578T; > 100 µM (inactive) with MDA-N; > 100 µM (inactive) in the assay on MOLT-4; > 100 µM (inactive) with NCI-H23; > 100 µM (inactive) in the assay with NCI-H460. Also, the GI50 with NCI/ADR-RES, in the assay on OVCAR-5, with PC-3, in the assay on SF-539, in the assay with SW-620 and in the assay with U-251 was > 100 µM (inactive) in each case. The GI50 in the assay on UACC-257 and with UO-31 was > 100 µM (inactive) in each case.
Turning to `CCOC(=O)n1c2ccccc2c(=O)n1CCO`, the GI50 with A498, in the assay on A549, in the assay with ACHN, in the assay on CAKI-1, with EKVX and with HCC 2998 was > 100 µM (inactive) in each case. Further, the GI50 in the assay on HCT-15 was over 100 µM; with Hs-578T it was > 100 µM (inactive); in the assay on MDA-N, > 100 µM (inactive); in the assay on MOLT-4 it was > 100 µM (inactive); in the assay with NCI-H23, > 100 µM (inactive); in the assay with NCI-H460 it was > 100 µM (inactive). For the same compound, the GI50 in the assay with NCI/ADR-RES, in the assay on OVCAR-5, in the assay on PC-3, with SF-539, with SW-620 and with U-251 was > 100 µM (inactive) each time. Moreover, the GI50 with UACC-257 and in the assay on UO-31 was > 100 µM (inactive) each time.
